Source: paper PMC9025810, “Interaction of Antifungal Drugs with CYP3A- and OATP1B-Mediated Venetoclax Elimination” (Pharmaceutics, 2022)
Read-outs that look alike come from different tables or passages of the source.

Legend:
[1] = cited from earlier work
human CYP3A4 = molecular target: T1, human CYP3A4 (Homo sapiens, UniProt P08684); assay: Venetoclax metabolism by human recombinant CYP3A4 supersomes; type: in vitro ADME; conditions: 10 µM venetoclax, 40 nM CYP3A4 supersomes, 2 h
T1 construct: purchased Corning 456207
Protocol: The ability of human CYP3A4 to metabolize venetoclax was assessed using human CYP3A4 supersomes using standard procedures. Reactions were performed in a volume of 100 µL. […] The mixture was preincubated for 5 min at 37 °C before initiating the reaction by the addition of the NADPH regenerating system and incubating at 37 °C with continuous shaking (400 rpm). At 0 h and 2 h, a 20 µL aliquot was mixed with 20 µL methanol to terminate the reaction. The mixture was then vortexed and stored at −80 °C until analysis. Venetoclax was quantified using a validated UHPLC-MS/MS analytical method.

[2] = Venetoclax plasma pharmacokinetics in wild-type, CYP3A(−/−) and OATP1B2(−/−) mice; type: in vivo; conditions: for AUC(0-t) / Cmax: mouse, plasma, po, mean (SE)
Protocol: In vivo experiments were performed with female and male mice from inbred wild-type strains (FVB, DBA) or with age- and sex-matched genetically-engineered mice with a deficiency of the Cyp3a locus (8-genes; […] The studies were conducted in accordance with the NIH's Guide for the Care and Use of Laboratory Animals and as approved by the University Laboratory Animal Resources Animal Care and Use Committee at Ohio State University (2015A00000101-R2; last approved 20 September 2021) and. Mice were housed in a temperature- and light-controlled environment with free access to water and a standard diet, excluding a 3-h fast before venetoclax administration. For in vivo studies, venetoclax was prepared for oral administration by dissolving the powder in DMSO (5%) and then adding PEG300 (50%), Tween-80 (5%), and water (40%) stepwise to create a suspension with a final concentration of 2 mg/mL. […] Based on our previous experience, all experiments were prospectively designed to have group sizes of five; however, pharmacokinetic data from two CYP3A(-/-) mice were excluded due to tolerability concerns, resulting in a final group size of three (Supplementary Table S1). Pharmacokinetic studies were performed as described previously. In brief, approximately 30 μL of whole blood was collected from each mouse at six time points between 5 min and 8 h after venetoclax administration; in most cases, samples were collected at 5 min, 15 min, 30 min, 1 h, 3 h, and 8 h. The first three samples were collected from a submandibular vein using a sterile 5-mm Goldenrod Animal Lancet and a heparinized capillary tube. The fourth and fifth samples were collected from the retro-orbital venous plexus using capillary tubes after anesthetizing the mice using 2% isoflurane. The terminal sample was collected into a 1.3-mL tube containing heparin by cardiac puncture using a syringe and needle. Whole blood samples were centrifuged at 13,000× g for 5 min. The plasma supernatant was then collected, immediately placed on dry ice, and stored at -80 °C until analysis. Venetoclax was quantified using a validated UHPLC-MS/MS analytical method; this method utilizes 5-μL sample volumes and has a lower limit of quantification of 5 ng/mL. Non-compartmental analysis was performed to determine the pharmacokinetic parameters of venetoclax using Phoenix WinNonlin version 8.0 (Certara, Princeton, NJ, USA). Peak plasma concentration (Cmax) was determined by visual inspection of the data from the log concentration versus time curves. The linear trapezoidal rule was used to obtain the area under the plasma concentration-time curve from time zero to the time of the last measurable concentration (AUC0-last).

T1 sequence (P08684 whole entry): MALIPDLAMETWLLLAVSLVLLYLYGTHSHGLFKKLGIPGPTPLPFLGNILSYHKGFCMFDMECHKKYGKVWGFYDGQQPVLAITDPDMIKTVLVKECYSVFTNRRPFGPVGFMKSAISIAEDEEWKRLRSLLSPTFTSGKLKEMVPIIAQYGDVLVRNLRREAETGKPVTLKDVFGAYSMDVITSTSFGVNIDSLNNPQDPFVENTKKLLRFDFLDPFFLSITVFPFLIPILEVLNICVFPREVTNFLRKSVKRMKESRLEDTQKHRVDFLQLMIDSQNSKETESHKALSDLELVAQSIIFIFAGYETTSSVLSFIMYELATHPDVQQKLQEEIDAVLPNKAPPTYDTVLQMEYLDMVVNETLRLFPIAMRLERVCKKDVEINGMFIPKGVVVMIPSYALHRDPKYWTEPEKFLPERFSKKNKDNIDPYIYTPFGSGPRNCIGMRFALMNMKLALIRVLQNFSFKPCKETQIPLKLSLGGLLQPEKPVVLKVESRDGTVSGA

CC1(C)CCC(CN2CCN(c3ccc(C(=O)NS(=O)(=O)c4ccc(NCC5CCOCC5)c([N+](=O)[O-])c4)c(Oc4cnc5[nH]ccc5c4)c3)CC2)=C(c2ccc(Cl)cc2)C1 [Venetoclax]
Reduction of clearance in vivo ([1]; mice with a deficiency of all OATP1A and OATP1B type transporters): 60%
DDI between venetoclax and ketoconazole (increase in venetoclax exposure) ([1]; mice): ~ 3 fold
Amount of venetoclax in the reaction in the presence of ketoconazole (human CYP3A4; 10 µM ketoconazole): nearly unchanged
Reduction of the amount of venetoclax in the reaction (human CYP3A4; vehicle (DMSO)): 40%
Venetoclax AUC Fold Increase ([2]; CYP3A(−/−) + ketoconazole 50 mg/kg versus vehicle-treated CYP3A(−/−)): 1.6 (versus vehicle-treated wild-type CYP3A(−/−)) fold
Venetoclax AUC Fold Increase ([2]; CYP3A(−/−) + ketoconazole 50 mg/kg versus vehicle-treated CYP3A(−/−), listed as venetoclax): 1.6 fold
Venetoclax AUC Fold Increase ([2]; female OATP1B2(−/−) versus wild-type DBA): 2.0 (versus wild-type DBA) fold
Venetoclax AUC Fold Increase ([2]; female OATP1B2(−/−) versus wild-type DBA, listed as venetoclax): 2 fold
AUC(0-t) ([2]; female, CYP3A(−/−) knockout (FVB.129P2 background), 10 mg/kg, CYP3A(−/−), female, venetoclax 10 mg/kg PO, co-treatment None (control of micafungin experiment), read-out: Venetoclax AUC(0–8h)): 10600 ng·h/mL
AUC(0-t) ([2]; female, DBA, 10 mg/kg, wild-type DBA, female, n=10, venetoclax 10 mg/kg PO, no co-treatment, read-out: Venetoclax AUC(0–8h)): 3210 ng·h/mL
Cmax ([2]; female, DBA, 10 mg/kg, wild-type DBA, n=10, venetoclax 10 mg/kg PO, no co-treatment): 523 ng/mL
Cmax ([2]; female, FVB, 10 mg/kg, Table S1: wild-type FVB, female, N=5, venetoclax 10 mg/kg PO, no co-treatment): 1540 ng/mL
AUC(0-t) ([2]; female, FVB, 10 mg/kg, Table S1: wild-type FVB, female, N=5, venetoclax 10 mg/kg PO, no co-treatment, read-out: Venetoclax AUC(0-last)): 7430 ng·h/mL
Cmax ([2]; female, FVB, 10 mg/kg, wild-type FVB, female, venetoclax 10 mg/kg PO 30 min after ketoconazole 50 mg/kg PO): 3080 ng/mL
AUC(0-t) ([2]; female, FVB, 10 mg/kg, wild-type FVB, female, venetoclax 10 mg/kg PO 30 min after ketoconazole 50 mg/kg PO, read-out: Venetoclax AUC(0–8h)): 19700 ng·h/mL
AUC(0-t) ([2]; female, FVB, 10 mg/kg, wild-type FVB, female, venetoclax 10 mg/kg PO, co-treatment PEG400 (vehicle), read-out: Venetoclax AUC(0–8h)): 6530 ng·h/mL
Cmax ([2]; female, FVB, 10 mg/kg, wild-type FVB, venetoclax 10 mg/kg PO, co-treatment PEG400 (vehicle)): 1030 ng/mL
Cmax ([2]; female, FVB.129P2 CYP3A(-/-), 10 mg/kg, Table S1: CYP3A(-/-), female, N=3, venetoclax 10 mg/kg PO, no co-treatment): 3400 ng/mL
AUC(0-t) ([2]; female, FVB.129P2 CYP3A(-/-), 10 mg/kg, Table S1: CYP3A(-/-), female, N=3, venetoclax 10 mg/kg PO, no co-treatment, read-out: Venetoclax AUC(0-last)): 13700 ng·h/mL
Cmax ([2]; female, FVB.129P2 CYP3A(−/−), 10 mg/kg, CYP3A(−/−), female, venetoclax 10 mg/kg PO 30 min after ketoconazole 50 mg/kg PO): 2700 ng/mL
AUC(0-t) ([2]; female, FVB.129P2 CYP3A(−/−), 10 mg/kg, CYP3A(−/−), female, venetoclax 10 mg/kg PO 30 min after ketoconazole 50 mg/kg PO, read-out: Venetoclax AUC(0–8h)): 17300 ng·h/mL
AUC(0-t) ([2]; female, FVB.129P2 CYP3A(−/−), 10 mg/kg, CYP3A(−/−), female, venetoclax 10 mg/kg PO, co-treatment PEG 400 (vehicle), read-out: Venetoclax AUC(0–8h)): 10600 ng·h/mL
Cmax ([2]; female, FVB.129P2 CYP3A(−/−), 10 mg/kg, CYP3A(−/−), venetoclax 10 mg/kg PO, co-treatment None (control of micafungin experiment)): 1830 ng/mL
Cmax ([2]; female, FVB.129P2 CYP3A(−/−), 10 mg/kg, CYP3A(−/−), venetoclax 10 mg/kg PO, co-treatment PEG 400 (vehicle)): 1570 ng/mL
Cmax ([2]; female, FVB.129P2 CYP3A(−/−), CYP3A(−/−), female, venetoclax 10 mg/kg PO 30 min after micafungin 100 mg/kg IV): 2280 ng/mL
AUC(0-t) ([2]; female, FVB.129P2 CYP3A(−/−), CYP3A(−/−), female, venetoclax 10 mg/kg PO 30 min after micafungin 100 mg/kg IV, read-out: Venetoclax AUC(0–8h)): 13600 ng·h/mL
AUC(0-t) ([2]; female, OATP1B2(−/−), 10 mg/kg, OATP1B2(−/−), female, n=10, venetoclax 10 mg/kg PO, no co-treatment, read-out: Venetoclax AUC(0–8h)): 6480 ng·h/mL
Cmax ([2]; female, OATP1B2(−/−), 10 mg/kg, n=10, venetoclax 10 mg/kg PO, no co-treatment): 1070 ng/mL
Venetoclax AUC Fold Increase ([2]; male OATP1B2(-/-) versus male wild-type DBA (Figure S3, Table S1)): 1.7 fold
Cmax ([2]; male, DBA, 10 mg/kg, Table S1: wild-type DBA, male, venetoclax 10 mg/kg PO, no co-treatment): 958 ng/mL
AUC(0-t) ([2]; male, DBA, 10 mg/kg, Table S1: wild-type DBA, male, venetoclax 10 mg/kg PO, no co-treatment, read-out: Venetoclax AUC(0-last)): 5270 ng·h/mL
Cmax ([2]; male, OATP1B2(-/-), 10 mg/kg, Table S1: OATP1B2(-/-), male, venetoclax 10 mg/kg PO, no co-treatment): 1610 ng/mL
AUC(0-t) ([2]; male, OATP1B2(-/-), 10 mg/kg, Table S1: OATP1B2(-/-), male, venetoclax 10 mg/kg PO, no co-treatment, read-out: Venetoclax AUC(0-last)): 9200 ng·h/mL
Venetoclax AUC Fold Increase ([2]; untreated CYP3A(-/-) versus untreated wild-type FVB, female (Figure S2, Table S1)): 1.8 fold
Venetoclax AUC Fold Increase ([2]; vehicle-treated CYP3A(−/−) versus vehicle-treated wild-type FVB): 1.6 (versus vehicle-treated wild-type FVB) fold
Venetoclax AUC Fold Increase ([2]; vehicle-treated CYP3A(−/−) versus vehicle-treated wild-type FVB, listed as venetoclax): 1.6 fold
Venetoclax AUC Fold Increase ([2]; wild-type FVB + ketoconazole 50 mg/kg versus vehicle-treated wild-type FVB): 3.0 (versus vehicle-treated wild-type FVB) fold
Venetoclax AUC Fold Increase ([2]; wild-type FVB + ketoconazole 50 mg/kg versus vehicle-treated wild-type FVB, listed as venetoclax): 3 fold
